Reference: the NIST ThermoML archive (doi:10.1016/j.jct.2005.11.003)
Numbers after ± are expanded uncertainties.

Columns and labels:
[1] = 298.15 K; 101.33 kPa; Liquid
[2] = refractive index (Na D-line) (dimensionless); conditions: 298.15 K; 101.33 kPa; Liquid
[3] = xn = mol fraction of the nth substance listed; conditions: 298.15 K, 101 kPa, Liquid
[4] = excess molar enthalpy (molar enthalpy of mixing); xn = mol fraction of the nth substance listed; conditions: 298.15 K, 101 kPa, Liquid

Work on CCCCOC(C)=O [butyl ethanoate] yielded a mass density [1] of 876.4 ± 1.1 kg/m3 and a refractive index [2] of 1.3918 ± 0.001.
CCCCOC=O [butyl methanoate] gave a mass density [1] of 888.17 ± 1.6 kg/m3 and a refractive index [2] of 1.387 ± 0.0012.
CCCCOC(=O)CC [butyl propanoate] gave a mass density [1] of 871.08 ± 0.96 kg/m3 and a refractive index [2] of 1.399 ± 0.001.
For CCCCOC(=O)CCC [butyl butanoate], the mass density [1] was 864.84 ± 0.98 kg/m3 and the refractive index [2] was 1.404 ± 0.001.
For ClCCCCl [1,3-dichloropropane] + CCCCOC=O, the mass density ([3]; x2 = 0.0501) was 1161.72 ± 0.75 kg/m3, the mass density ([3]; x2 = 0.101) was 1144.33 ± 0.78 kg/m3 and the mass density ([3]; x2 = 0.1527) was 1127.13 ± 0.81 kg/m3. It also gave a mass density ([3]; x2 = 0.2078) of 1109.19 ± 0.85 kg/m3, a mass density ([3]; x2 = 0.2601) of 1092.54 ± 0.89 kg/m3 and a mass density ([3]; x2 = 0.3145) of 1075.53 ± 0.92 kg/m3. It also gave a mass density ([3]; x2 = 0.3712) of 1058.26 ± 0.96 kg/m3, a mass density ([3]; x2 = 0.487) of 1024.07 ± 1 kg/m3 and a mass density ([3]; x2 = 0.6083) of 989.86 ± 1.1 kg/m3. For the same molecule, the mass density ([3]; x2 = 0.6701) was 973.02 ± 1.2 kg/m3, the mass density ([3]; x2 = 0.7342) was 955.9 ± 1.2 kg/m3 and the mass density ([3]; x2 = 0.7984) was 939.11 ± 1.3 kg/m3. The mass density ([3]; x2 = 0.8657) was 921.98 ± 1.3 kg/m3, the mass density ([3]; x2 = 0.9315) was 905.54 ± 1.4 kg/m3 and the excess molar enthalpy ([4]; x2 = 0.046) was 0.00296 ± 0.000837 kcal/mol. It also gave an excess molar enthalpy ([4]; x2 = 0.0992) of 0.00421 ± 0.00086 kcal/mol, an excess molar enthalpy ([4]; x2 = 0.1566) of 0.00351 ± 0.00086 kcal/mol and an excess molar enthalpy ([4]; x2 = 0.2391) of 0.00153 ± 0.000789 kcal/mol. For the same molecule, the excess molar enthalpy ([4]; x2 = 0.2953) was -0.00098 ± 0.000765 kcal/mol, the excess molar enthalpy ([4]; x2 = 0.3467) was -0.00392 ± 0.00086 kcal/mol and the excess molar enthalpy ([4]; x2 = 0.3972) was -0.00822 ± 0.001 kcal/mol. For the same molecule, the excess molar enthalpy ([4]; x2 = 0.4442) was -0.013 ± 0.00115 kcal/mol, the excess molar enthalpy ([4]; x2 = 0.4874) was -0.0174 ± 0.00129 kcal/mol and the excess molar enthalpy ([4]; x2 = 0.5293) was -0.0205 ± 0.00139 kcal/mol. It also gave an excess molar enthalpy ([4]; x2 = 0.5696) of -0.0213 ± 0.00141 kcal/mol, an excess molar enthalpy ([4]; x2 = 0.6134) of -0.0219 ± 0.00141 kcal/mol and an excess molar enthalpy ([4]; x2 = 0.6636) of -0.0217 ± 0.00141 kcal/mol. The excess molar enthalpy ([4]; x2 = 0.7143) was -0.0213 ± 0.00141 kcal/mol, the excess molar enthalpy ([4]; x2 = 0.7798) was -0.0192 ± 0.00134 kcal/mol and the excess molar enthalpy ([4]; x2 = 0.8596) was -0.0142 ± 0.00117 kcal/mol. For the same molecule, the excess molar enthalpy ([4]; x2 = 0.9334) was -0.00782 ± 0.00098 kcal/mol.
ClCCCCCCCl [1,6-dichlorohexane] + CCCCOC=O gave a mass density ([3]; x2 = 0.0782) of 1052.81 ± 1.1 kg/m3, a mass density ([3]; x2 = 0.1483) of 1042.74 ± 1.2 kg/m3 and a mass density ([3]; x2 = 0.2157) of 1032.73 ± 1.2 kg/m3. The mass density ([3]; x2 = 0.2827) was 1022.46 ± 1.2 kg/m3, the mass density ([3]; x2 = 0.3478) was 1012.18 ± 1.2 kg/m3 and the mass density ([3]; x2 = 0.4104) was 1002.02 ± 1.2 kg/m3. For the same molecule, the mass density ([3]; x2 = 0.5319) was 981.37 ± 1.3 kg/m3, the mass density ([3]; x2 = 0.5893) was 971.18 ± 1.3 kg/m3 and the mass density ([3]; x2 = 0.6457) was 960.88 ± 1.3 kg/m3. For the same molecule, the mass density ([3]; x2 = 0.7539) was 940.28 ± 1.4 kg/m3, the mass density ([3]; x2 = 0.8053) was 930.03 ± 1.4 kg/m3 and the mass density ([3]; x2 = 0.9044) was 909.61 ± 1.4 kg/m3. The mass density ([3]; x2 = 0.9513) was 899.53 ± 1.4 kg/m3, the excess molar enthalpy ([4]; x2 = 0.0701) was 0.0129 ± 0.00115 kcal/mol and the excess molar enthalpy ([4]; x2 = 0.1508) was 0.0227 ± 0.00143 kcal/mol. The excess molar enthalpy ([4]; x2 = 0.2299) was 0.0298 ± 0.00167 kcal/mol, the excess molar enthalpy ([4]; x2 = 0.3026) was 0.0332 ± 0.00177 kcal/mol and the excess molar enthalpy ([4]; x2 = 0.371) was 0.0338 ± 0.00179 kcal/mol. The excess molar enthalpy ([4]; x2 = 0.434) was 0.0322 ± 0.00174 kcal/mol, the excess molar enthalpy ([4]; x2 = 0.491) was 0.0291 ± 0.00165 kcal/mol and the excess molar enthalpy ([4]; x2 = 0.5401) was 0.0255 ± 0.00153 kcal/mol. It also gave an excess molar enthalpy ([4]; x2 = 0.5778) of 0.0221 ± 0.00143 kcal/mol, an excess molar enthalpy ([4]; x2 = 0.6131) of 0.02 ± 0.00136 kcal/mol and an excess molar enthalpy ([4]; x2 = 0.6659) of 0.0173 ± 0.00127 kcal/mol. It also gave an excess molar enthalpy ([4]; x2 = 0.7195) of 0.016 ± 0.00124 kcal/mol, an excess molar enthalpy ([4]; x2 = 0.7775) of 0.0137 ± 0.00117 kcal/mol and an excess molar enthalpy ([4]; x2 = 0.8372) of 0.0105 ± 0.00108 kcal/mol. The excess molar enthalpy ([4]; x2 = 0.8968) was 0.00693 ± 0.000956 kcal/mol and the excess molar enthalpy ([4]; x2 = 0.9528) was 0.00313 ± 0.000837 kcal/mol.
